From US4622337A, “2,2-dimethyl-3-(2-halovinyl)cyclopropane carboxlic acid ester pesticides” (priority 1972, dated 1986)

Tests used:
[1] = test system: female flies (houseflies); test: Synergisability with sesamex, 2 μg per fly pretreatment; type: in vivo, Musca domestica; conditions: for Approx. Synergistic factor: sesamex, 2 μg. per fly; for LD 50 active compound + synergist: pretreated with 2 μg. per fly sesamex; for LD 50 active compound only: untreated flies
Protocol: (§1) Female flies were treated on the thorax with a one microliter drop of insecticide dissolved in acetone. Two replicates of 15 flies were used at each dose rate and 6 dose rates were used per compound under test. After treatment, the flies were maintained at a temperature of 20° C.±1° and kill was assessed 24 and 48 hours after treatment. LD50 values were calculated in micrograms of insecticide per fly and relative toxicities were calculated from the inverse ratios of the LD50 values.

[2] = test system: mustard beetles (Phaedon cochleariae Fab); test: Relative toxicity to mustard beetles, topical micro drop; type: in vivo; conditions: 5-benzyl-3-furylmethyl (1R)-trans-chrysanthemate = 1000; inverse ratio of LD50; topical, 48 hours
Protocol: (§2) The toxicity of these new esters was tested by the procedure described in detail in our above mentioned application and the following results were obtained:
(§3) The insecticidal acitivity of the esters of the invention was assessed against houseflies and mustard beetles using the following techniques:
Acetone solutions of the test compound were applied ventrally to adult mustard beetles using a micro drop applicator. The treated insects were maintained for 48 hours after which time kill is assessed. Two replicates of 40 to 50 mustard beetles were used at each dose level and 3 to 4 dose levels were used for each compound. Again, LD50 values were calculated and relative toxicities were calculated for the inverse ratios of LD50 (see Elliott et al, J. Sci. Food Agric. 20, 561, (1969)).
(§4) Relative toxicities were calculated by comparison with 5-benzyl-3-furylmethyl(1R)-trans-chrysanthemate which is one of the most toxic chrysanthemate esters known to houseflies and mustard beetles, its toxicity being about 24 times that of allethrin to houseflies and 65 times that of allethrin to mustard beetles.

[3] = test system: houseflies (Musca domestica); test: Relative toxicity to houseflies, topical drop on thorax; type: in vivo; conditions: 5-benzyl-3-furylmethyl (1R)-trans-chrysanthemate = 1000; inverse ratio of LD50; topical, female flies
Protocol: as §2, §3
as §1, with “values. (see Sawicki et al, Bulletin of the World Health Organization, 35,893, (1966) and Sawicki et al, Entomologia and Exp. Appl. 10, 253, (1967)).” for “values.”
as §4

| Structure (SMILES) | Approx. Synergistic factor [1] | LD 50 active compound + synergist [1] | LD 50 active compound only [1] | Relative Toxicity, Mustard Beetles [2] | Relative Toxicity, Houseflies [3] |
| --- | --- | --- | --- | --- | --- |
| CC(C)=CC1C(C(=O)OCc2coc(Cc3ccccc3)c2)C1(C)C (racemic) [5-benzyl-3-furyl methyl (1RS)--cis-trans-chrysanthemate, reference compound] | ~13 | – | – | – | – |
| CC1(C)[C@H](C=C(Cl)Cl)[C@H]1C(=O)OCc1cccc(Oc2ccccc2)c1 (racemic) [Compound P21F, 3-Phenoxybenzyl(1RS)-trans-2,2-dimethyl-3-(2,2-dichlorovinyl)cyclopropane carboxylate] | ~39 | 0.00033 μg. per female fly | 0.013 μg. per female fly | 790 | 400 |
| CC1(C)[C@H](C(=O)OCc2coc(Cc3ccccc3)c2)[C@@H]1C=C(Cl)Cl (relative stereo) [Compound P21D] | ~12 | 0.00046 μg. per female fly | 0.0058 μg. per female fly | 1700 | 1200 |
| CC/C=C\[C@H]1[C@@H](C(=O)OCc2coc(Cc3ccccc3)c2)C1(C)C [Compound A cis] | ~6 | 0.0012 μg. per female fly | 0.0074 μg. per female fly | – | – |
| CC1(C)[C@H](C(=O)OC(C#N)c2cccc(Oc3ccccc3)c2)[C@@H]1C=C(Br)Br (stereo partly drawn) [Compound P29B, (αRS)-cyano-3-phenoxybenzyl(1R)cis-2,2-dimethyl-3-(2,2-dibromovinyl)cyclopropane carboxylate] | – | – | – | 11000 | 10000 |
| CC1(C)[C@H](C=C(Br)Br)[C@H]1C(=O)OCc1cccc(Oc2ccccc2)c1 [Compound P29C, 3-phenoxybenzyl(1R)trans-2,2-dimethyl-3-(2,2-dibromovinyl)-cyclopropane carboxylate] | – | – | – | 4000 | 1100 |
| CC1(C)[C@H](C=C(Br)Br)[C@H]1C(=O)OC(C#N)c1cccc(Oc2ccccc2)c1 (stereo partly drawn) [Compound P29D, (αRS)-cyano-3-phenoxybenzyl(1R)trans-2,2-dimethyl-3-(2,2-dibromovinyl)-cyclopropane carboxylate] | – | – | – | 5200 | 4100 |
| CC1(C)[C@H](C=C(Cl)Cl)[C@H]1C(=O)OC(C#N)c1cccc(Oc2ccccc2)c1 (stereo partly drawn) [Compound P29E, (αRS)-cyano-3-phenoxybenzyl(1R)trans-2,2-dimethyl-3-(2,2-dichlorovinyl)-cyclopropane carboxylate] | – | – | – | 3100 | 3900 |
| CC1(C)[C@H](C(=O)OC(C#N)c2cccc(Oc3ccccc3)c2)[C@@H]1C=C(Cl)Cl (stereo partly drawn) [Compound P29J, (αRS)-cyano-3-phenoxybenzyl(1R)-cis-2,2-dimethyl-3-(2,2-dichlorovinyl)-cyclopropane carboxylate] | – | – | – | 4200 | 11000 |
| CC1(C)[C@H](C=C(Cl)Cl)[C@@H]1C(=O)OC(C#N)c1cccc(Oc2ccccc2)c1 (stereo partly drawn) [Compound P29K, (αRS)-cyano-3-phenxoybenzyl(1S)-cis-2,2-dimethyl-3-(2,2-dichlorovinyl)-cyclopropane carboxylate] | – | – | – | 130 | 140 |
| CC1(C)[C@H](C=C(F)F)[C@H]1C(=O)OCc1coc(Cc2ccccc2)c1 [Compound P31A] | – | – | – | 1900 | 3900 |
| CC1(C)[C@H](C=C(F)F)[C@H]1C(=O)OCc1cccc(Oc2ccccc2)c1 [Compound P31B] | – | – | – | 270 | 620 |
| CC1(C)[C@H](C=C(F)F)[C@H]1C(=O)OC(C#N)c1cccc(Oc2ccccc2)c1 (some centres unmarked) [Compound P31C] | – | – | – | 730 | 840 |
| CC1(C)[C@H](C(=O)OCc2coc(Cc3ccccc3)c2)[C@@H]1C=C(F)F [Compound P31D] | – | – | – | 1300 | 2300 |
| CC1(C)[C@H](C(=O)OCc2cccc(Oc3ccccc3)c2)[C@@H]1C=C(F)F [Compound P31E] | – | – | – | 850 | 1800 |
| CC1(C)[C@H](C(=O)OC(C#N)c2cccc(Oc3ccccc3)c2)[C@@H]1C=C(F)F (some centres unmarked) [Compound P31F] | – | – | – | 2200 | 1200 |
| CC1(C)[C@H](C(=O)OCc2cccc(C(=O)c3ccccc3)c2)[C@@H]1C=C(Br)Br [Compound P39A, 3-benzoylbenzyl(1R)cis-2,2-dimethyl-3-(2,2-dibromovinyl)-cyclopropane carboxylate] | – | – | – | 830 | 50 |
| CC1(C)[C@H](C=C(F)F)[C@H]1C(=O)OCc1cccc(C(=O)c2ccccc2)c1 [Compound P39C, 3-benzoylbenzyl(1R)trans-2,2-dimethyl-3-(2,2-difluorovinyl)-cyclopropane carboxylate] | – | – | – | 50 | 6 |
| CC1(C)[C@H](C(=O)OCc2cccc(C(=O)c3ccccc3)c2)[C@@H]1C=C(F)F [Compound P39D, 3-benzoylbenzyl(1R)-cis-2,2-dimethyl-3-(2,2-difluorovinyl)-cyclopropane carboxylate] | – | – | – | 500 | 20 |
| CC/C=C\[C@@H]1[C@@H](C(=O)OCc2cccc(Cc3ccccc3)c2)C1(C)C [Compound S] | – | – | – | 170 | 120 |
| CC1(C)[C@H](C=CCl)[C@H]1C(=O)OCc1coc(Cc2ccccc2)c1 [K] | – | – | – | 1600 | 1300 |
| C#CC(OC(=O)[C@@H]1[C@H](C=C(Br)Br)C1(C)C)c1cccc(Oc2ccccc2)c1 (some centres unmarked) [ME7] | – | – | – | 5000 | 1100 |
| C=CCC1=C(C)C(OC(=O)[C@@H]2[C@@H](C=C(F)F)C2(C)C)CC1=O (some centres unmarked) [ME9] | – | – | – | 50 | 50 |
| C=CCC1=C(C)C(OC(=O)[C@@H]2[C@H](C=C(F)F)C2(C)C)CC1=O (some centres unmarked) [ME10] | – | – | – | 30 | 40 |
| CC1(C)C(C=C(Br)Br)C1C(=O)OC(C#N)c1cccc(Oc2ccccc2)c1 [P29B (non-crystalline isomer), (αR)-cyano-3-phenoxybenzyl(1R)cis-2,2-dimethyl-3-(2,2-dibromovinyl)cyclopropane carboxylate] | – | – | – | 4000 | 3500 |
| C=C/C=C\CC1=C(C)[C@@H](OC(=O)[C@@H]2[C@@H](C=C(C)C)C2(C)C)CC1=O [Pyrethrin I, reference compound] | – | – | – | 1600 | 12 |
| C=CCC1=C(C)C(OC(=O)[C@@H]2[C@@H](/C=C\CC)C2(C)C)CC1=O (some centres unmarked) [Q] | – | – | – | 69 | 60 |
| CC/C=C\[C@@H]1[C@@H](C(=O)OCc2cccc(Oc3ccccc3)c2)C1(C)C [T] | – | – | – | 300 | 240 |
